Data on eleven compounds can be found in patent publication US20220160713A1, “SELECTIVE INHIBITOR OF PROTEIN ARGININE […] 5 (PRMT5)” (PRELUDE THERAPEUTICS, INCORPORATED, priority 2019, published 2022).

Broadly, the solubility is how much of the substance goes into solution per volume. In general, IC50 refers to the concentration needed to halve the response being measured. A word on the bioavailability: it is dose-corrected exposure relative to a reference, in per cent.

One series is described as follows: physchem. Particulars: 25 °C, thermodynamic from solid. As for the experimental part:
Compounds are first dispersed in freshly prepared FaSSIF (http://biorelevant.com/site_media/upload/documents/How_to_make_FaSSIF_FeSSIF_and_FaSSGF.pdf) buffer in 1 mg/mL respectively, and the standard samples are prepared by preparing 1 mg/mL of test compounds in DMSO. The compounds are then sufficient mixed by vortex mixer for 30 sec, and agitated at 25° C. using 300 rpm form 4 hour in thermo mixer. After incubation, the prepared samples are centrifuged at 10000 rpm for 10 min to remove the undissolved solid, the resulting supernatants are applied to HPLC. The actual concentrations of the compounds are evaluated by measuring the peak area, and the solubility (S) of compounds is calculated according to following equation:
S=Csmp=Cstd*(Asmp/Astd)*(Vstd/Vsmp)
Where C is the sample concentration in μg/mL, A is the peak area, and V is the injection volume.

Series [1] relates to Granta-519 mouse xenograft. As to the kind of experiment: Tumor growth inhibition in Granta-519 mouse xenograft model. The class given is in vivo. As for the experimental part:
(§1) Granta-519 cells was maintained in DMEM medium supplemented with 10% fetal bovine serum and 2 mM L-Glutamine at 37° C. in an atmosphere of 5% CO2 in air. Cells in exponential growth phase were harvested and 1×10^7 cells in 0.1 mL of PBS with Matrigel (1:1) were injected subcutaneously at the right lower flank region of each mouse for tumor development. The treatments were started when the mean tumor size reaches approximately 300-400 mm^3. […] Formula I or vehicle (0.5% Na CMC+0.5% Tween80, suspension) were administered orally (QD for Formula I, QD for vehicle) at a dose of 30 mg/kg and 50 mg/kg for 19 and 16 days, respectively. Body weights and tumor size were measured every 3 to 4 days after randomization. Animals were euthanized 12 hours after last dosing, and blood and tumor samples were collected for analysis.

Series [2] deals with Symmetric Di-Methyl Arginine (sDMA) marks in Granta-519 cell line. As to the kind of experiment: Cellular sDMA western blot in Granta cells. The class given is cell-based. Particulars: Homo sapiens, 72 h, 3 days.
The nature of series [3]: Rat non-crossover PK study. The following applies: 1 mg/kg p.o. The format is in vivo, rat (SD, male, non-fasted). The procedure: In a rat (SD, male, non-fasted) non-crossover PK study, the compound of Formula I was dosed at 1 mg/kg (DMA: 20% HPBCD=5:95, solution) via i.v. administration (N=3) and 1 mg/kg (0.5% Na CMC+0.5% Tween80, solution) via oral gauge (p.o.) (N=3).

In another series the test system is Granta-519 cells. As to the kind of experiment: Cell proliferation assay on Granta-519 cells (CCK-8). The class given is cell-based. Particulars: Homo sapiens, 240 h; Granta-519 cell line, day 10; read-out: Prolif. IC50. The procedure: Granta-519 cells are maintained in PRMI 1640 (Corning Cellgro, Catalog #: 10-040-CV) medium supplemented with 10% v/v FBS (GE Healthcare, Catalog #: SH30910.03). Formula I is dissolved in DMSO to make 10 mM stocks and stored at −20° C. Nine-point, 3-fold serial dilutions are made with DMSO with top concentration at 1 mM (working stocks).
On day of experiment, compound working stocks are further diluted at 1:50 with fresh medium in 96 well plate, and 10 μL of diluted drugs are added to a new 96 well plate for proliferation assay. Cells growing at exponential phase are spun down at 1500 rpm for 4 min and resuspend in fresh medium to reach a density of 0.5×10^6 cells/ml. 200 ul of cells are added to 96 well plate containing diluted drugs and incubated for 3 days. DMSO is used a vehicle control.
One day 3, 10 μL of Cell Counting Kit-8 (CCK-8, Jojindo, CK04-13) solution is added to a new 96 well plate. […] Plates are incubated in CO2 incubator for 2 hours and OD450 values are measured with a microplate reader (iMark microplate reader, Bio-Rad). […]
Percentage of viable cells, relative to DMSO vehicle control, is calculated and plotted in Graphpad Prism ([Inhibitor] vs. normalized response−Variable slope) to determine proliferation IC50 values on day 10.

Series [4] deals with sDMA in Granta-519 tumor samples. The series is described as follows: sDMA levels in tumor samples of Granta-519 mouse xenograft (western blot). The format is in vivo. As for the experimental part:
as §1
To measure sDMA levels in tumor samples, tumors from each mouse were weighted and homogenized in RIPA buffer supplemented with protease inhibitor (cOmplete™, EDTA-free Protease Inhibitor Cocktail, Roche). Lysate were centrifuged at 14,000 rpm for 30 min at 4° C. to remove debris. Total protein concentrations of lysate were determined by BCA assay (ThermoFisher Scientific, Catalog #: 23225). Equal amount of total proteins from each tumor were separated on SDS-PAGE gel, and sDMA levels were determined by WB as described previously.
For orientation: A western blot detects proteins with antibodies after separation by electrophoresis.

The nature of series [5]: Dynamic vapor sorption (DVS). The format is physicochemical. The procedure:
The dynamic vapor sorption experiments can be done with a VTI SGA-Cx100 Symmetric Vapor Sorption Analyzer. The moisture uptake profile is completed in three cycles of 10% RH increments with adsorption from 5% to 95% RH, followed by desorption of 10% increments from 95% to 5%. The equilibration criteria are 0.0050 wt % in 5 minutes with a maximum equilibration time of 180 minutes. All adsorption and desorption are performed at room temperature (21-22° C.). No pre-drying step is applied for the samples.

Series [6] in a line: Gravimetric solubility estimate in water. The class given is physicochemical. Particulars: thermodynamic from solid.
[7] abbreviates: room temperature, normal humidity range (40-50% RH).

In brackets after ≈: the same amount, converted by molar mass. Entries after “also recorded” stand apart in the source; their conditions may differ.

`O=C1C(O)=C([C@H]2CC[C@H](c3ccc(Cl)cc3)CC2)C(=O)c2ccccc21` [Atovaquone] showed a solubility at 4 h in “physchem” (fassif) below 2 µg/mL.

As for `C[C@@]1(O)[C@@H]([C@H](O)c2ccc(Cl)c(Cl)c2)O[C@@H](n2ccc3c(N)ncnc32)[C@@H]1O` [Formula I, (2R,3S,4R,5R)-5-(4-amino-7H-pyrrolo[2,3-d]pyrimidin-7-yl)-2-((R)-(3,4-dichlorophenyl)(hydroxy)methyl)-3-methyltetrahydrofuran-3,4-diol], the body weight loss came to 1% in series [1] (30 mg/kg orally QD, 19 days) and 8% in series [1] (50 mg/kg orally QD, 16 days). The tumor growth inhibition in series [1] (30 mg/kg orally QD, 19 days) is given as 46%; in series [1] (50 mg/kg orally QD, 16 days) it was 79%. Besides, the IC50 in series [2] was 31 nM; in the series with Granta-519 cells, 75 nM. For the same compound, the “average dose normalized AUC” value in series [3] stood at 3246 ng·kg·h/mL/mg. For the same compound, the bioavailability in series [3] (male, SD, blood, po) was above 100%. Besides, the “inhibition of sDMA in tumor” value in series [4] (30 mg/kg orally QD) is given as above 90%. For the same compound, the sDMA in tumor result in series [4] (50 mg/kg orally QD) is reported as “no detectable sDMA”.

Consider `C[C@@]1(O)[C@@H]([C@H](O)c2ccc(Cl)c(Cl)c2)O[C@@H](n2ccc3c(N)ncnc32)[C@@H]1O` [Formula I, Form I, (2R,3S,4R,5R)-5-(4-amino-7H-pyrrolo[2,3-d]pyrimidin-7-yl)-2-((R)-(3,4-dichlorophenyl)(hydroxy)methyl)-3-methyltetrahydrofuran-3,4-diol], for which, in series [5], the “change of form, XRPD before and after DVS” value (“change of form” below) is listed as “did not change the polymorphic form; also recorded: no change in form”. Moreover, the “water adsorbed (adsorption/desorption isotherms)” value in series [5] (at about 95% humidity) is listed as around 0.5%; in series [5] (setting [7]), around 0.8%.

Take `C[C@@]1(O)[C@@H]([C@H](O)c2ccc(Cl)c(Cl)c2)O[C@@H](n2ccc3c(N)ncnc32)[C@@H]1O.O=C(O)/C=C\C(=O)O` [Formula IA, (2R,3S,4R,5R)-5-(4-amino-7H-pyrrolo[2,3-d]pyrimidin-7-yl)-2-((R)-(3,4-dichlorophenyl)(hydroxy)methyl)-3-methyltetrahydrofuran-3,4-diol, maleate salt]: the solubility in series [6] was around 1100 µg/mL.

Consider `C[C@@]1(O)[C@@H]([C@H](O)c2ccc(Cl)c(Cl)c2)O[C@@H](n2ccc3c(N)ncnc32)[C@@H]1O.Cl` [Formula IB, (2R,3S,4R,5R)-5-(4-amino-7H-pyrrolo[2,3-d]pyrimidin-7-yl)-2-((R)-(3,4-dichlorophenyl)(hydroxy)methyl)-3-methyltetrahydrofuran-3,4-diol, hydrochloride salt], for which the solubility in series [6] was around 800 µg/mL.

In the case of `C[C@@]1(O)[C@@H]([C@H](O)c2ccc(Cl)c(Cl)c2)O[C@@H](n2ccc3c(N)ncnc32)[C@@H]1O.Cl` [Formula IB, Form III], the “change of form” value in series [5] was “no change in form”. For the same compound, the figures for the “water adsorbed (adsorption/desorption isotherms)” value in series [5] (at about 95% humidity) and in series [5] (setting [7]) were around 2.8% and around 1%, respectively.

Regarding `C[C@@]1(O)[C@@H]([C@H](O)c2ccc(Cl)c(Cl)c2)O[C@@H](n2ccc3c(N)ncnc32)[C@@H]1O.Cl` [Formula IB, Form II], in series [5], the “change of form” value is “no change in Form”. Moreover, the “water adsorbed (adsorption/desorption isotherms)” value in series [5] (at about 95% humidity) is recorded as around 6%; in series [5] (setting [7]) it was around 3%.

`C[C@@]1(O)[C@@H]([C@H](O)c2ccc(Cl)c(Cl)c2)O[C@@H](n2ccc3c(N)ncnc32)[C@@H]1O.Cl` [Formula IB, Form I]: in series [5], the “change of form” value is on record as “no change in Form”. Also, the “water adsorbed (adsorption/desorption isotherms)” value is listed as around 0.5% in series [5] (at about 95% humidity) and around 0.1% in series [5] (setting [7]).

Regarding `C[C@@]1(O)[C@@H]([C@H](O)c2ccc(Cl)c(Cl)c2)O[C@@H](n2ccc3c(N)ncnc32)[C@@H]1O.O=C(O)C(=O)O` [Formula IC, (2R,3S,4R,5R)-5-(4-amino-7H-pyrrolo[2,3-d]pyrimidin-7-yl)-2-((R)-(3,4-dichlorophenyl)(hydroxy)methyl)-3-methyltetrahydrofuran-3,4-diol, oxalate salt], the solubility in series [6] is below 300 µg/mL.

Turning to `C[C@@]1(O)[C@@H]([C@H](O)c2ccc(Cl)c(Cl)c2)O[C@@H](n2ccc3c(N)ncnc32)[C@@H]1O.O=P(O)(O)O` [Formula ID, (2R,3S,4R,5R)-5-(4-amino-7H-pyrrolo[2,3-d]pyrimidin-7-yl)-2-((R)-(3,4-dichlorophenyl)(hydroxy)methyl)-3-methyltetrahydrofuran-3,4-diol, phosphate salt], the solubility in series [6] is below 300 µg/mL.

In the series “physchem”, `CC(=O)CC(c1ccccc1)c1c(O)c2ccccc2oc1=O` (stereo not shown) [Warfarin] had a solubility at 4 h of 10 to 25 µg/mL (≈ 32.4 to 81.1 µM).
